The source of these data is patent US12084479B2, “Modified antimicrobial peptide derived from an arginine-rich domain” (priority 2016, dated 2024).

The subject of data set [1] is P. aeruginosa. Type of data set: cell-based, Pseudomonas aeruginosa. How it is done:
(§1) The antimicrobial activities of HBcARD peptides were tested using a number of bacterial strains, including Pseudomonas aeruginosa Migula strains (ATCC 27853, ampicillin-resistant and ATCC 9027, ampicillin-resistant), Klebsiella pneumoniae strain (ATCC 13884), Shigella dysenteriae Xen27 (Caliper Co.), Escherichia coli strain (ATCC 25922), Staphylococcus aureus subsp. strains (ATCC 25923, methicillin-resistantATCC 29213, methicillin-resistant and ATCC 19636, methicillin-resistant) and Acinetobacter baumannii strains (ATCC 17978, ATCC 17978 CR, ATCC19606, ATCC 19606 CR, TCGH 45530 and TCGH 46709). Clinical isolates TCGH 45530 and TCGH 46709 were obtained from Tzu-Chi Buddhist General Hospital (TCGH) in Taiwan, and were identified using the Vitek system (Biomerieux Vitek, Inc., Hazelwood, MO, USA). See Chang et al. (2012), J Microbiol Immunol Infect 45:37-42 doi:10.1016/j.jmii.2011.09.019.
(§2) L- and D-HBcARD peptides were purchased from Yao-Hong Biotechnology Inc. (Taipei, Taiwan). Antimicrobial activity was determined as described. See, Chen et al., 2013. Briefly, bacteria were grown in MH broth (Difco) to mid-logarithmic phase at 37° C., and were diluted to 10^6 CFU (colony formation unit)/ml in phosphate buffer (10 mM sodium phosphate and 50 mM sodium chloride, pH 7.2). Peptides were serially diluted in the same buffer. Fifty microliters (μl) of bacteria were mixed with fifty μl of peptides at varying concentrations, followed by incubation at 37° C. for 3 hours without shaking. At the end of incubation, bacteria were placed on Mueller-Hinton broth agar plates, and allowed to grow at 37° C. overnight for measurement of minimal bactericidal concentration (MBC).
(§3) All peptides were tested in triplicate.

Data set [2] has as its system E. coli. Type of data set: cell-based, Escherichia coli. How it is done:
as §1, §2, §3

The test system of data set [3] is A. baumannii. It counts as cell-based, Acinetobacter baumannii. How it is done:
as §1, §2, §3

Data set [4] concerns S. dysenteriae Xen27. It counts as cell-based, Shigella dysenteriae. The procedure: as §1
L- and D-HBcARD peptides were purchased from Yao-Hong Biotechnology Inc. (Taipei, Taiwan). Antimicrobial activity was determined as described. See, Chen et al., 2013. Briefly, bacteria were grown in MH broth (Difco) to mid-logarithmic phase at 37° C., and were diluted to 10^6 CFU (colony formation unit)/ml in phosphate buffer (10 mM sodium phosphate and 50 mM sodium chloride, pH 7.2). Peptides were serially diluted in the same buffer. […]

In data set [5] the test system is S. aureus. Type of data set: cell-based, Staphylococcus aureus. The procedure:
as §1, §2, §3

Data set [6] is described as follows: Protease resistance assay (serum stability), SDS-PAGE and Green Angel staining. Conditions: 5% bovine serum, 37° C. It counts as in vitro ADME. The procedure: To compare the stability of the 37-mer L- and D-HBcARD peptides against serum protease degradation, we performed a protease resistance assay. After incubation with 5% bovine serum at 37° C. for 3 hours, more than 80% of L-HBcARD peptide was no longer detectable by staining with Green Angel on SDS-PAGE. In contrast, the signal intensity of the D-HBcARD peptide was not reduced under the same condition.
L- and D-HBcARD peptides (0.5 nmol) were mixed with MBC buffer in the presence or absence of 5% serum collected from bovine, mouse and human origins. After incubation at 37° C. for 3 hours, the amounts of peptides surviving the protease digestion were determined by SDS-PAGE electrophoresis and staining with Green Angel. The images were quantified using image J software and the intensities were normalized with the no serum control. To investigate the effect of serum on the antimicrobial activity of HBcARD peptides, L- and D-HBcARD peptides at their respective MBC concentrations were incubated with S. aureus ATCC19636 strain (10^6 CFU/ml) at 37° C. for three hours. Bacteria were plated on MH agar and the antimicrobial activity was determined by colony formation.

For data set [7], the system named is human red blood cells (hRBCs). Put plainly: Hemolytic activity. Type of data set: cell-based. Conditions: up to 460 mg/L, 37° C., one hour. The procedure:
In the hemolysis assay, human RBCs were incubated with serially-diluted doses (0 to 460 mg/L) of D-HBcARD, L-HBcARD, or melittin, at 37° C. for one hour.
The hemolytic activities of peptides were determined by hemolysis against human red blood cells (hRBCs). Human blood was obtained in EDTA-containing tube and was centrifuged at 450 g for 10 min. The pellet was washed three times with PBS buffer, and a solution of 10% hRBCs was prepared. hRBCs solution was mixed with serial dilutions of peptides in PBS buffer, and the reaction mixtures were incubated for 1 h at 37° C. After centrifugation at 450 g for 10 min, the percentage of hemolysis was determined by measuring the absorbance at the wavelength of 405 nm of the supernatant. Blank and 100% hemolysis were determined in PBS buffer and in the presence of 1% Triton X-100, respectively.

For data set [8], the system named is S. aureus ATCC 19636. Put plainly: Immunogenicity: sepsis model in peptide-immunized mice. Type of data set: in vivo, ICR mice. The note with it: immunized three times with 5 mg/kg peptide. The procedure: FIG. 4 is a set of graphs showing comparison of in vivo protection activities between L- and D-form HBcARD peptides in a mouse sepsis model infected with S. aureus. (A) Three week-old ICR mice were inoculated with S. aureus (4×10^6 CFU/mouse) and i.p. injected with PBS, L-HBcARD, or D-HBcARD at 2 hours post-inoculation. Each group contained ten mice. (B) and (C) Three week-old ICR mice were immunized with L- and D-HBcARD peptides (5 mg/kg), respectively, at day 0, 3 and 6. On day 14, the mice were inoculated with S. aureus (4×10^6 CFU/mouse) and i.p. injected with PBS, L-HBcARD or D-HBcARD (10 mg/kg) at 1 hour post-inoculation, respectively. Another group of mice were treated with PBS in parallel as a control. Each group of animals contained five mice. *P<0.05; ***P<0.0001; ns, no significance.
To investigate whether repeated treatments with the 37-mer HBcARD peptides may compromise the efficacy by inducing neutralization antibody in vivo, we immunized 3-week old mice three times with L- and D-HBcARD peptides, respectively, prior to bacterial infection. […]
To investigate the potential immunogenicity of HBcARD peptides, we determined the in vivo antimicrobial activity of HBcARD peptide in peptide-immunized mice. […] Mortality was monitored daily for 7 days following the bacterial inoculation.

Data set [9] deals with colistin-resistant A. baumannii TCGH 46709. The data set is described as follows: Mouse lung infection model, intra-tracheal inoculation. Type of data set: in vivo, BALB/c mice. The note with it: 5 mg/kg/day ip. How it is done: FIG. 6 is a graph showing in vivo protection efficacies of 150-177C and 150-177Q peptides in a BALB/c mouse lung infection model. Colistin-resistant A. baumannii was inoculated via intra-tracheal route.
BALB/c mice (n=8/group) were intra-tracheally inoculated with colistin-resistant A. baumannii TCGH 46709 (3.4×10^8 cfu/mouse). These lung-infected mice were ip. treated with colistin (5 mg/kg/day) or D-150-177C (5 and 10 mg/kg/day), respectively.

Data set [10] has as its system K. pneumoniae. Type of data set: cell-based, Klebsiella pneumoniae. The procedure: as §1, §2, §3

Converted amounts (≈) assume the structure as drawn. Read-outs that look alike come from different tables or passages of the source. Where a SMILES comes first, the peptide text is derived from it. Where no end group is shown, it is not given here. [ ]: non-standard residue; d: D form.

For orientation: MBC means the lowest tested concentration that kills the bacteria rather than only halting them. On to `CC(C)[C@H](NC(=O)[C@@H](NC(=O)[C@@H](N)[C@@H](C)O)C(C)C)C(=O)N[C@H](CCCNC(=N)N)C(=O)N[C@H](CCCNC(=N)N)C(=O)N[C@H](CCCNC(=N)N)C(=O)NCC(=O)N[C@H](CCCNC(=N)N)C(=O)N[C@@H](CO)C(=O)N1CCC[C@H]1C(=O)N[C@H](CCCNC(=N)N)C(=O)N[C@H](CCCNC(=N)N)C(=O)N[C@H](CCCNC(=N)N)C(=O)N[C@H](C(=O)N1CCC[C@H]1C(=O)N[C@@H](CO)C(=O)N1CCC[C@H]1C(=O)N[C@H](CCCNC(=N)N)C(=O)N[C@H](CCCNC(=N)N)C(=O)N[C@H](CCCNC(=N)N)C(=O)N[C@H](CCCNC(=N)N)C(=O)N[C@@H](CO)C(=O)N[C@@H](CCC(N)=O)C(=O)N[C@@H](CO)C(=O)N1CCC[C@H]1C(=O)N[C@H](CCCNC(=N)N)C(=O)N[C@H](CCCNC(=N)N)C(=O)N[C@H](CCCNC(=N)N)C(=O)N[C@H](CCCNC(=N)N)C(=O)N[C@@H](CO)C(=O)N[C@@H](CCC(N)=O)C(=O)N[C@@H](CO)C(=O)N[C@H](CCCNC(=N)N)C(=O)N[C@@H](CCC(=O)O)C(=O)N[C@@H](CO)C(=O)N[C@@H](CCC(N)=O)C(=O)N[C@@H](CS)C(=O)O)[C@@H](C)O` [D-HBcARD, TVVrrrGrSPrrrTPSPrrrrSQSPrrrrSQSrESQC] (H-TVV[dR][dR][dR]G[dR]SP[dR][dR][dR]TPSP[dR][dR][dR][dR]SQSP[dR][dR][dR][dR]SQS[dR]ESQC-OH; N-terminus and C-terminus assumed), for which the Minimal bactericidal concentration in data set [1] was 4.6 µg/mL (≈ 1 µM); in data set [2] it was 73.6 µg/mL (≈ 16 µM); in [4] (S. dysenteriae Xen27), 73.6 µg/mL (≈ 16 µM). Moreover, the figures for the MBC in [3] and in [5] were 2.3 to 4.6 µg/mL and 4.6 to 9.2 µg/mL, respectively. Also, the “signal intensity of the peptide after serum incubation” value in data set [6] (3 hours) is “not reduced”. For the same compound, the hemolytic activity result in data set [7] is recorded as “no hemolytic activity”. In data set [8], the “neutralization activity induced by prior immunizations” value was “no neutralization activity”.
Consider colistin, for which the survival outcome in [9] was “died at 60 hours post-inoculation”.
With “TVVRRRGRSPRRRTPSPRRRRSQSPRRRRSQSRESQC [L-HBcARD]”, the Minimal bactericidal concentration was found to be 9.2 µg/mL in [10], 18.4 µg/mL in data set [2], 18.4 µg/mL in data set [4] and 18.4 µg/mL in data set [5]. Besides, in data set [6] (read-out: peptide no longer detectable by staining with Green Angel on SDS-PAGE), the metabolised at 3 h was > 80%. In addition, the hemolytic activity entry in data set [7] is “no hemolytic activity”. The “neutralization activity induced by prior immunizations” value in [8] is “no neutralization activity”.
